Like-named read-outs stand apart in the source and are kept apart here.

One assay concerns Helicobacter pylori. As to conditions: general statement; cited from earlier work.
In assay [1] the test system is Helicobacter pylori clinical strains. Briefly: Evaluation of antibiotic resistant rate (in vitro MIC, 187 clinical strains). In kind it is cell-based. As for the experimental part:
Complexes of antibiotics (amoxicillin, clarithromycin, metronidazole, levofloxacin, and tetracyclin) and smectite which have been actually used for Helicobacter eradication treatment in current clinical trials were prepared and in vitro MIC for non-absorbable antibiotic candidate groups gentamicin, netilmicin, tobramycin, amikacin) to be used as a novel therapeutic agent was measured, and MIC50 and MIC90 were confirmed. To this end, 187 cultured positive clinical strains obtained from 1,265 patient samples were used.

Assay [2] has as its system clarithromycin-resistant Helicobacter pylori. Briefly: Eradication activity in vitro on clarithromycin-resistant strain (disk). The note with it: strain with MIC of CLR 48 mg/L, twice repeated tests. In kind it is cell-based. The text has this: Clarithromycin-resistant Helicobacter pylori was applied (red) in a medium and then a sample was made in a disk form and placed on the medium to measure the eradication effect. At this time, it was meant that if red disappeared around the disk, there was the eradication effect.

On to `CC1(C)S[C@@H]2[C@H](NC(=O)[C@H](N)c3ccc(O)cc3)C(=O)N2[C@H]1C(=O)O` [Amoxicilin, amoxicillin], for which, in the assay with Helicobacter pylori, the resistance result is reported as “less than 10%”. With `NCC[C@H](O)C(=O)N[C@@H]1C[C@H](N)[C@@H](O[C@H]2O[C@H](CN)[C@@H](O)[C@H](O)[C@H]2O)[C@H](O)[C@H]1O[C@H]1O[C@H](CO)[C@@H](O)[C@H](N)[C@H]1O` [amikacin], the resistant rate in assay [1] (based on MIC 1 μg/ml) amounted to 61.3%. `CC[C@H]1OC(=O)[C@H](C)[C@@H](O[C@H]2C[C@@](C)(OC)[C@@H](O)[C@H](C)O2)[C@H](C)[C@@H](O[C@@H]2O[C@H](C)C[C@H](N(C)C)[C@H]2O)[C@](C)(OC)C[C@@H](C)C(=O)[C@H](C)[C@@H](O)[C@]1(C)O` [clarithromycin] displayed a resistant rate in assay [1] of 29.8%. In assay [2], the “eradication effect on clarithromycin-resistant H. pylori (clear zone around disk)” value is given as “the clear zone was not shown”. Consider `C[C@H]1COc2c(N3CCN(C)CC3)c(F)cc3c(=O)c(C(=O)O)cn1c23` [levofloxacin], for which the resistant rate in assay [1] was found to be 37.2%. On to `CCN[C@@H]1C[C@H](N)[C@@H](O[C@H]2OC(CN)=CC[C@H]2N)[C@H](O)[C@H]1O[C@H]1OC[C@](C)(O)[C@H](NC)[C@H]1O` [netilmicin], for which the resistant rate in assay [1] (based on MIC 1 μg/ml) came to 1.43%. On the same count and under the same terms, then `NC[C@H]1O[C@H](O[C@H]2[C@H](O)[C@@H](O[C@H]3O[C@H](CO)[C@@H](O)[C@H](N)[C@H]3O)[C@H](N)C[C@@H]2N)[C@H](N)C[C@@H]1O` [tobramycin], with 36.3%; and gentamicin, with 2.78%.

The values above are taken from patent publication US20220265692A1, “ORALLY-ADMINISTERED PHARMACEUTICAL COMPOSITION FOR ERADICATING ANTIBIOTIC-RESISTANT HELICOBACTER PYLORI, COMPRISING COMPLEX OF NON-ABSORBABLE ANTIBIOTIC AND CLAY MINERAL” (priority 2019, published 2022).
